# Results reported in patent US8541596B2, “Inhibitors” (Probiodrug AG, priority 2010, dated 2013).
# Biological target: hQC (Homo sapiens (Human), UniProt Q16769)
# Assay: QC inhibitor assay (fluorometric/spectrophotometric QC activity assay with inhibitor added)
# Format: biochemical
# Settings: bound
# Method: All measurements were performed with a BioAssay Reader HTS-7000Plus for microplates (Perkin Elmer) at 30° C. QC activity was evaluated fluorometrically using H-Gln-βNA. The samples consisted of 0.2 mM fluorogenic substrate, 0.25 U pyroglutamyl aminopeptidase (Unizyme, Høsholm, Denmark) in 0.2 M Tris/HCl, pH 8.0 containing 20 mM EDTA and an appropriately diluted aliquot of QC in a final volume of 250 μl. Excitation/emission wavelengths were 320/410 nm. The assay reactions were initiated by addition of glutaminyl cyclase. QC activity was determined from a standard curve of /3-naphthylamine under assay conditions. One unit is defined as the amount of QC catalyzing the formation of 1 μmol pGlu-βNA from H-Gln-/3NA per minute under the described conditions.
# In a second fluorometric assay, QC was activity determined using H-Gln-AMC as substrate. Reactions were carried out at 30° C. utilizing the NOVOStar reader for microplates (BMG labtechnologies). The samples consisted of varying concentrations of the fluorogenic substrate, 0.1 U pyroglutamyl aminopeptidase (Qiagen) in 0.05 M Tris/HCl, pH 8.0 containing 5 mM EDTA and an appropriately diluted aliquot of QC in a final volume of 250 μl. Excitation/emission wavelengths were 380/460 nm. The assay reactions were initiated by addition of glutaminyl cyclase. QC activity was determined from a standard curve of 7-amino-4-methylcoumarin under assay conditions. The kinetic data were evaluated using GraFit software.
# This novel assay was used to determine the kinetic parameters for most of the QC substrates. […] Samples consisted of the respective QC substrate, 0.3 mM NADH, 14 mM a-Ketoglutaric acid and 30 U/ml glutamate dehydrogenase in a final volume of 250 μl. Reactions were started by addition of QC and persued by monitoring of the decrease in absorbance at 340 nm for 8-15 min.
# The initial velocities were evaluated and the enzymatic activity was determined from a standard curve of ammonia under assay conditions. All samples were measured at 30° C., using either the […]uor Plus or the Sunrise (both from TECAN) reader for microplates. Kinetic data was evaluated using GraFit software.
# For inhibitor testing, the sample composition was the same as described above, except for the putative inhibitory compound added. For a rapid test of QC-inhibition, samples contained 4 mM of the respective inhibitor and a substrate concentration at 1 KM. For detailed investigations of the inhibition and determination of K,-values, influence of the inhibitor on the auxiliary enzymes was investigated first. […] The inhibitory constant was evaluated by fitting the set of progress curves to the general equation for competitive inhibition using GraFit software.
# Sequence of hQC (Q16769 29-361): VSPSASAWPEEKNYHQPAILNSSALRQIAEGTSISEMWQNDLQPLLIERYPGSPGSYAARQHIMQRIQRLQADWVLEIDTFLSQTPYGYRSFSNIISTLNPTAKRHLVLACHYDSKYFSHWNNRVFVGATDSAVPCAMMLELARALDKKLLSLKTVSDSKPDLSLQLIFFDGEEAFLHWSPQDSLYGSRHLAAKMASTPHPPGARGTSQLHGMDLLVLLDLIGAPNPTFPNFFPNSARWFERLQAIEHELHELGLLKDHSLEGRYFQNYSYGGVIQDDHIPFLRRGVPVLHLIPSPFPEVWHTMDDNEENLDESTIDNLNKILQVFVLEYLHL
row,SMILES,IC50
1,"Cc1ccc2cc(CN(Cc3ccc4nc(C)ccc4c3)c3ccc4[nH]cnc4c3)ccc2n1 [Example 37, N,N-Bis((2-methylquinolin-6-yl)methyl)-1H-benzo[d]imidazol-5-amine]",< 10 µM
2,"COc1ccc(CN(CCCc2ccccc2)c2ccc3nc[nH]c3c2)cc1 [Example 89, N-(4-Methoxybenzyl)-N-(3-phenylpropyl)-3H-benzo[d]imidazol-5-amine]",< 10 µM
3,"CCc1ccc(CN(Cc2cc(F)c(F)c(F)c2)c2ccc3[nH]cnc3c2)cc1 [Example 71, N-(3,4,5-Trifluorobenzyl)-N-(4-ethylbenzyl)-1H-benzo[d]imidazol-5-amine]",< 10 µM
4,"COc1ccc(CN(Cc2ccccc2)c2ccc3nc[nH]c3c2)cc1 [Example 86, N-(4-Methoxybenzyl)-N-benzyl-3H-benzo[d]imidazol-5-amine]",< 10 µM
5,"CSc1ccc(CN(Cc2cc(F)cc(F)c2)c2ccc3[nH]cnc3c2)cc1 [Example 59, N-(3,5-Difluorobenzyl)-N-(4-(methylthio)benzyl)-1H-benzo[d]imidazol-5-amine]",< 10 µM
6,"CN(C)c1ccc(CN(Cc2ccc3nsnc3c2)c2ccc3[nH]cnc3c2)cc1 [Example 81, N-(4-(Dimethylamino)benzyl)-N-((benzo[c][1,2,5]thiadiazol-5-yl)methyl)-1H-benzo[d]imidazol-5-amine]",< 10 µM
7,"CSc1ccc(CN(Cc2nc3ccccc3s2)c2ccc3[nH]cnc3c2)cc1 [Example 66, N-(4-(Methylthio)benzyl)-N-((benzo[d]thiazol-2-yl)methyl)-1H-benzo[d]imidazol-5-amine]",< 10 µM
8,"c1ccc(CN(Cc2ccccc2)c2ccc3[nH]cnc3c2)cc1 [Example 10, N,N-Dibenzyl-1H-benzo[d]imidazol-5-amine]",< 10 µM
9,"Cc1c(F)c(F)c(CNc2ccc3[nH]cnc3c2)c(F)c1F [Example 44, N-(2,3,5,6-Tetrafluoro-4-methylbenzyl)-1H-benzo[d]imidazol-5-amine]",< 10 µM
10,"CSc1ccc(CN(Cc2c(F)c(F)c(C)c(F)c2F)c2ccc3[nH]cnc3c2)cc1 [Example 62, N-(2,3,5,6-Tetrafluoro-4-methylbenzyl)-N-(4-(methylthio)benzyl)-1H-benzo[d]imidazol-5-amine]",< 10 µM

# Further lines, results first:
row,IC50,SMILES
1,< 10 µM,"Clc1ccc2scc(CNc3ccc4[nH]cnc4c3)c2c1 [Example 49, N-((5-Chlorobenzo[b]thiophen-3-yl)methyl)-1H-benzo[d]imidazol-5-amine]"
2,< 10 µM,"CCCCN(Cc1ccc(SC)cc1)c1ccc2[nH]cnc2c1 [Example 83, N-(4-(Methylthio)benzyl)-N-butyl-1H-benzo[d]imidazol-5-amine]"
3,< 10 µM,"CCc1ccc(CN(Cc2nc3ccccc3s2)c2ccc3[nH]cnc3c2)cc1 [Example 74, N-(4-Ethylbenzyl)-N-((benzo[d]thiazol-2-yl)methyl)-1H-benzo[d]imidazol-5-amine]"
4,< 10 µM,"c1ccc2sc(CN(Cc3nc4ccccc4s3)c3ccc4[nH]cnc4c3)nc2c1 [Example 34, N,N-Bis((benzo[d]thiazol-2-yl)methyl)-1H-benzo[d]imidazol-5-amine]"
5,< 10 µM,"Cc1ccc(CN(Cc2ccc(N(C)C)cc2)c2ccc3[nH]cnc3c2)cc1 [Example 78, N-(4-(Dimethylamino)benzyl)-N-(4-methylbenzyl)-1H-benzo[d]imidazol-5-amine]"
6,< 10 µM,"N#Cc1ccc(CN(Cc2ccc(C#N)cc2)c2ccc3[nH]cnc3c2)cc1 [Example 19, N,N-Bis(4-cyanobenzyl)-1H-benzo[d]imidazol-5-amine]"
7,< 10 µM,"CCc1ccc(CN(Cc2ccc(SC)cc2)c2ccc3[nH]cnc3c2)cc1 [Example 69, N-(4-(Methylthio)benzyl)-N-(4-ethylbenzyl)-1H-benzo[d]imidazol-5-amine]"
8,< 10 µM,"CSc1ccc(CNc2ccc3[nH]cnc3c2)cc1 [Example 11, N-(4-(Methylthio)benzyl)-1H-benzo[d]imidazol-5-amine]"
9,< 10 µM,"CSc1ccc(CN(Cc2cc(F)c(F)c(F)c2)c2ccc3[nH]cnc3c2)cc1 [Example 60, N-(3,4,5-Trifluorobenzyl)-N-(4-(methylthio)benzyl)-1H-benzo[d]imidazol-5-amine]"
10,< 10 µM,"Brc1ccc(CN(Cc2ccc(Br)cc2)c2ccc3[nH]cnc3c2)cc1 [Example 27, N,N-Bis(4-bromobenzyl)-1H-benzo[d]imidazol-5-amine]"
11,< 10 µM,"CCc1ccc(CN(Cc2ccc(C#N)cc2)c2ccc3[nH]cnc3c2)cc1 [Example 72, N-(4-Cyanobenzyl)-N-(4-ethylbenzyl)-1H-benzo[d]imidazol-5-amine]"
12,< 10 µM,"COc1ccc(CN(Cc2ccc3nsnc3c2)c2ccc3[nH]cnc3c2)cc1 [Example 76, N-(4-Methoxybenzyl)-N-((benzo[c][1,2,5]thiadiazol-6-yl)methyl)-1H-benzo[d]imidazol-5-amine]"
